Data set [1] can be described thus: Human plasma half-life assay (LC-MS). The class given is in vitro ADME. Conditions: incubated at 37° C., read-out: Human Plasma T½ (converted). As for the experimental part: (§1) B. Human and Rat Plasma Half-Life Assay
(§2) 50 μl, was removed at various times, like at 0, 1, 2, 3, 4, 8, 24, 32, 48, 56, 72 hours, mixed with 5 μL formic acid and 150 μL acetonitrile in a microcentrifuge tube, vertexed, and centrifuged for 10 minutes at 10K rpm. The supernatant was transferred to an injection vial and analyzed by LC-MS. The LC-MS system consisted of an API4000 mass spectrometer with an ESI probe. Positive ion mode and full scan detection were used. HPLC separation was carried out on a Luna 3μ C8 (2), 2×30 mm column with a gradient from 90% A to 90% B in 10 minutes at a flow rate of 0.3 ml/min. Buffer A was 1% formic acid in water and buffer B was 1% formic acid acetonitrile.

Data set [2] in a line: Rat plasma half-life assay (LC-MS). Format: in vitro ADME. Particulars: incubated at 37° C., read-out: Rat Plasma T½ (converted). As for the experimental part: as §1, §2

The values that follow come from patent publication US8450266B2 (Ipsen Pharma S.A.S., priority 2008, dated 2013).

Where a SMILES comes first, the peptide text is derived from it. [ ]: non-standard residue; d: D form. The star is where a group is joined. Decanoyl = CCCCCCCCCC(=O)*; Ac6c = NC1(C(=O)O)CCCCC1; Orn = NCCC[C@H](N)C(=O)O; X1 = CCCN1C(=O)CC(*)C1=O

For the molecule `CCCN1C(=O)CC(SC[C@H](NC(=O)[C@H](CC(N)=O)NC(=O)[C@H](Cc2c[nH]cn2)NC(=O)[C@H](CCCCN)NC(=O)[C@H](Cc2c[nH]c3ccccc23)NC(=O)[C@H](CC(=O)O)NC(=O)[C@H](CC(N)=O)NC(=O)[C@H](CCCCN)NC(=O)[C@H](CCCCN)NC(=O)CNC(=O)[C@H](CCCCN)NC(=O)[C@H](CCC(N)=O)NC(=O)[C@H](C)NC(=O)[C@H](CC(C)C)NC(=O)[C@H](CC(C)C)NC(=O)[C@H](Cc2c[nH]c3ccccc23)NC(=O)[C@H](CC(N)=O)NC(=O)[C@@H](NC(=O)[C@H](Cc2ccccc2)NC(=O)[C@H](CC(=O)O)NC(=O)[C@H](CCC(N)=O)NC(=O)[C@H](CCC(N)=O)NC(=O)[C@H](Cc2c[nH]cn2)NC(=O)[C@@H](NC(=O)[C@H](CCCCN)NC(=O)[C@H](CC(=O)O)NC(=O)[C@H](CCSC)NC(=O)[C@H](C)NC(=O)[C@@H](NC(=O)[C@H](CO)NC(=O)[C@H](Cc2ccc(O)cc2)NC(=O)[C@H](CC(=O)O)NC(=O)[C@H](CO)NC(=O)C2(NC(C)=O)CCCCC2)[C@@H](C)CC)[C@@H](C)CC)C(C)C)C(=O)N[C@H](C(=O)N[C@@H](CCC(N)=O)C(=O)O)[C@@H](C)O)C1=O` (stereo partly shown) [Example 2, [Ac-A6c^7, Cys(Psu)^40]hGIP(7-42)-OH] (Ac-[Ac6c]SDYSIAMDKIHQQDFVNWLLAQKGKKNDWKHNC(X1)TQ-OH), the half-life at 0.1 mg/mL in data set [1] is 13.7 h; in data set [2] it was 7.2 h.

Consider `CCCN1C(=O)CC(SC[C@H](NC(=O)[C@H](CCCCN)NC(=O)[C@H](CCC(N)=O)NC(=O)[C@H](C)NC(=O)[C@H](CC(C)C)NC(=O)[C@H](CC(C)C)NC(=O)[C@H](Cc2c[nH]c3ccccc23)NC(=O)[C@H](CC(N)=O)NC(=O)[C@@H](NC(=O)[C@H](Cc2ccccc2)NC(=O)[C@H](CC(=O)O)NC(=O)[C@H](CCC(N)=O)NC(=O)[C@H](CCC(N)=O)NC(=O)[C@H](Cc2c[nH]cn2)NC(=O)[C@@H](NC(=O)[C@H](CCCCN)NC(=O)[C@H](CC(=O)O)NC(=O)[C@H](CCSC)NC(=O)[C@H](C)NC(=O)[C@@H](NC(=O)[C@H](CO)NC(=O)[C@H](Cc2ccc(O)cc2)NC(=O)[C@H](CC(=O)O)NC(=O)[C@H](CO)NC(=O)C2(NC(C)=O)CCCCC2)[C@@H](C)CC)[C@@H](C)CC)C(C)C)C(N)=O)C1=O` (stereo partly shown) [Example 29, [Ac-A6c^7, Cys(Psu)^31]hGIP(7-31)-NH2], for which the half-life at 0.1 mg/mL in data set [1] is 12.2 h; in data set [2], 7 h.

Turning to `CCCN1C(=O)CC(SC[C@H](NC(=O)[C@H](CCCCN)NC(=O)[C@H](CCC(N)=O)NC(=O)[C@H](C)NC(=O)[C@H](CC(C)C)NC(=O)[C@H](CC(C)C)NC(=O)[C@H](Cc2c[nH]c3ccccc23)NC(=O)[C@H](CC(N)=O)NC(=O)[C@@H](NC(=O)[C@H](Cc2ccccc2)NC(=O)[C@H](CC(=O)O)NC(=O)[C@H](CCC(N)=O)NC(=O)[C@H](CCC(N)=O)NC(=O)[C@H](Cc2c[nH]cn2)NC(=O)[C@@H](NC(=O)[C@H](CCCCN)NC(=O)[C@H](CC(=O)O)NC(=O)[C@H](CCSC)NC(=O)[C@H](C)NC(=O)[C@@H](NC(=O)[C@H](CO)NC(=O)[C@H](Cc2ccc(O)cc2)NC(=O)[C@H](CC(=O)O)NC(=O)[C@H](CO)NC(=O)C2(NC(=O)[C@H](Cc3ccccc3)NC(C)=O)CCCCC2)[C@@H](C)CC)[C@@H](C)CC)C(C)C)C(N)=O)C1=O` (stereo partly shown) [Example 33, [Ac-Phe^6, A6c^7, Cys(Psu)^31]hGIP(6-31)-NH2], the figures for the half-life at 0.1 mg/mL in data set [1] and in data set [2] were 13.6 h and 10.2 h, respectively.

Take `CCCCCCCCCC(=O)NCCC[C@H](NC(=O)[C@H](CCCCN)NC(=O)[C@H](CCCCN)NC(=O)CNC(=O)[C@H](CCCCN)NC(=O)[C@H](CCC(N)=O)NC(=O)[C@H](C)NC(=O)[C@H](CC(C)C)NC(=O)[C@H](CC(C)C)NC(=O)[C@H](Cc1c[nH]c2ccccc12)NC(=O)[C@H](CC(N)=O)NC(=O)[C@@H](NC(=O)[C@H](Cc1ccccc1)NC(=O)[C@H](CC(=O)O)NC(=O)[C@H](CCC(N)=O)NC(=O)[C@H](CCC(N)=O)NC(=O)[C@H](Cc1c[nH]cn1)NC(=O)[C@@H](NC(=O)[C@H](CCCCN)NC(=O)[C@H](CC(=O)O)NC(=O)[C@H](CCSC)NC(=O)[C@H](C)NC(=O)[C@@H](NC(=O)[C@H](CO)NC(=O)[C@H](Cc1ccc(O)cc1)NC(=O)[C@H](CC(=O)O)NC(=O)[C@H](CO)NC(=O)C1(NC(C)=O)CCCCC1)[C@@H](C)CC)[C@@H](C)CC)C(C)C)C(=O)N[C@@H](CC(=O)O)C(=O)N[C@@H](Cc1c[nH]c2ccccc12)C(=O)N[C@@H](CCCCN)C(=O)N[C@@H](Cc1c[nH]cn1)C(=O)N[C@@H](CC(N)=O)C(=O)N[C@H](C(=O)N[C@H](C(=O)N[C@@H](CCC(N)=O)C(=O)O)[C@@H](C)O)[C@@H](C)CC` [Example 19, [Ac-A6c^7, Orn^34(N-C(O)-(CH2)8-CH3)]hGIP(7-42)-OH] (Ac-[Ac6c]SDYSIAMDKIHQQDFVNWLLAQKGKK[Orn](Decanoyl)DWKHNITQ-OH): the half-life at 0.1 mg/ml was 18.9 h in data set [1] and 10.7 h in data set [2].

`CCCCCCCCCC(=O)NCCC[C@H](NC(=O)[C@H](CCCCN)NC(=O)[C@H](CCC(N)=O)NC(=O)[C@H](C)NC(=O)[C@H](CC(C)C)NC(=O)[C@H](CC(C)C)NC(=O)[C@H](Cc1c[nH]c2ccccc12)NC(=O)[C@H](CC(N)=O)NC(=O)[C@@H](NC(=O)[C@H](Cc1ccccc1)NC(=O)[C@H](CC(=O)O)NC(=O)[C@H](CCC(N)=O)NC(=O)[C@H](CCC(N)=O)NC(=O)[C@H](Cc1c[nH]cn1)NC(=O)[C@@H](NC(=O)[C@H](CCCCN)NC(=O)[C@H](CC(=O)O)NC(=O)[C@H](CCSC)NC(=O)[C@H](C)NC(=O)[C@@H](NC(=O)[C@H](CO)NC(=O)[C@H](Cc1ccc(O)cc1)NC(=O)[C@H](CC(=O)O)NC(=O)[C@H](CO)NC(=O)C1(N)CCCCC1)[C@@H](C)CC)[C@@H](C)CC)C(C)C)C(=O)N[C@@H](CCCCN)C(=O)N[C@@H](CCCCN)C(=O)N[C@@H](CC(N)=O)C(=O)N[C@@H](CC(=O)O)C(=O)N[C@@H](Cc1c[nH]c2ccccc12)C(=O)N[C@@H](CCCCN)C(=O)N[C@@H](Cc1c[nH]cn1)C(=O)N[C@@H](CC(N)=O)C(=O)N[C@H](C(=O)N[C@H](C(=O)N[C@@H](CCC(N)=O)C(=O)O)[C@@H](C)O)[C@@H](C)CC` [Example 14, [A6c^7, Orn^31(N-C(O)-(CH2)8-CH3)]hGIP(7-42)-OH] (H-[Ac6c]SDYSIAMDKIHQQDFVNWLLAQK[Orn](Decanoyl)KKNDWKHNITQ-OH): the half-life at 0.1 mg/ml in data set [1] was 4.1 h; in data set [2], 15.3 h.
